Measurements as given in patent US20260234144A1 (TAY THERAPEUTICS LIMITED, priority 2023, published 2026).

System: R223X stop codon in the mutated luciferase gene, ADXC8 luciferase reporter cell line
Assay: cells
Type: cell-based
Settings: ADXC8 cells, 24 hours; for Emax / EC (100% of 200 uM G418 response): 24 h; for Emax: read-out: Fold Over Control, maximum fold response relative to 200 μM G418; for EC (100% of 200 uM G418 response): read-out: pC100%, negative logarithm of the concentration giving the same response as 200 μM G418

Structure (SMILES) | Fold Over Control (maximum fold response relative to 200 μM G418) | pC100% (negative logarithm of the concentration giving the same response as 200 μM G418) | Emax [%] | EC (100% of 200 uM G418 response) [µM]
CNc1nc(NC2CC3CCC2N3)nc2nc(C)cc(C)c12 (centres unmarked) [Example 518, N^2-(-7-azabicyclo[2.2.1]heptan-2-yl)-N^4,5,7-trimethylpyrido[2,3-d]pyrimidine-2,4-diamine] | ## (Fold over Ctrl > 1 ≤ 30) | + (pC100% > 4.0 ≤ 5.0) |  | 
CNc1nc(N[C@H]2CNC[C@H]2OC)nc2nc(C)cc(C)c12 [Example 370] |  |  | 100 to 3000 | 1 to 10
Cc1cc(C)c2c(N)nc(N[C@@H]3CN[C@@H](C)C3)nc2n1 [Example 349] |  |  | 100 to 3000 | 10 to 100
Cc1cc(C)c2c(N)nc(NC[C@@H]3CCCN3)nc2n1 [Example 182] |  |  | 0 to 100 | > 31.6
COC(C)c1ccc2c(N)nc(NC3CCN(C)CC3)nc2n1 (centres unmarked) [Example 290] |  |  | 100 to 3000 | 10 to 100
COCc1ccccc1-c1ccc2c(N)nc(NC3CCN(C)CC3)nc2n1 [Example 58] |  |  | 100 to 3000 | 10 to 100
COC(C)c1cnc2nc(NC3CCN(C)CC3)nc(N)c2c1 (centres unmarked) [Example 284] |  |  | 0 to 100 | > 31.6
CN1CCC(Nc2cc(N)c3cccnc3n2)CC1 [Example 43, N^2-(1-methylpiperidin-4-yl)-1,8-naphthyridine-2,4-diamine] |  |  | 100 to 3000 | 10 to 100
Cc1cc(-c2ccccc2)c2c(N)nc(NC3CCN(C)CC3)nc2n1 [Example 13, 7-methyl-N^2-(1-methylpiperidin-4-yl)-5-phenylpyrido[2,3-d]pyrimidine-2,4-diamine] |  |  | 0 to 100 | > 31.6
Cc1cc(C)c2c(N)nc(N[C@H]3CCCN(Cc4ccccc4)C3)nc2n1 [Example 215] |  |  | 100 to 3000 | 1 to 10
Cc1c2c(nc3nc(NC4CCN(Cc5cccnc5O)CC4)nc(N)c13)CCC2 [Example 664] |  |  | 0 to 100 | > 31.6
Cc1cc(C)c2c(N)nc(NCCN3CCC3)nc2n1 [Example 184] |  |  | 100 to 3000 | 10 to 100
Cc1cc(C)c2c(N)nc(NC3CCN(Cc4cnn(C)c4)CC3)nc2n1 [Example 568] |  |  | 100 to 3000 | 1 to 10
Cc1cc(C)c2c(N)nc(NC3(C)CNC3)nc2n1 [Example 222] |  |  | 0 to 100 | > 31.6
Cc1cc(C)c2c(NC3CC3)nc(N[C@@H]3CCNC3)nc2n1 [Example 332] |  |  | 100 to 3000 | 1 to 10
CCNc1nc(N[C@@]23CNC[C@@H]2C3)nc2nc(C)cc(C)c12 [Example 419] |  |  |  | 0.1 to 1
CC(=O)Nc1cc(C#N)ccc1CN1CCC(Nc2nc(N)c3c(C)cc(C)nc3n2)CC1 [Example 511, N-(2-((4-((4-amino-5,7-dimethylpyrido[2,3-d]pyrimidin-2-yl)amino)piperidin-1-yl)methyl)-5-cyanophenyl)acetamide] |  |  | 100 to 3000 | 1 to 10
Cc1c2c(nc3nc(NC4CCN(Cc5ccccc5NS(C)(=O)=O)CC4)nc(N)c13)CCC2 [Example 671] |  |  | 100 to 3000 | 1 to 10
CNc1nc(NC2CC[C@H]2N(C)C)nc2nc(C)cc(C)c12 (some centres unmarked) [Example 412] |  |  |  | 1 to 10
Cc1nc2nc(NCCCN3CCOCC3)nc(N)c2c2c1CCC2 [Example 46, 6-methyl-N^3-(3-morpholinopropyl)-8,9-dihydro-7H-cyclopenta[4,5]pyrido[2,3-d]pyrimidine-1,3-diamine] |  |  |  | 0.1 to 1

Structure (SMILES) | Fold Over Control (maximum fold response relative to 200 μM G418) | pC100% (negative logarithm of the concentration giving the same response as 200 μM G418) | Emax [%] | EC (100% of 200 uM G418 response) [µM]
Cc1cc(C)c2c(N)nc(NC3CCN(Cc4ccc(CO)cc4)CC3)nc2n1 [Example 481] |  |  | 100 to 3000 | 1 to 10
CSc1cccc(-c2ccc3c(N)nc(NC4CCN(C)CC4)nc3n2)c1 [Example 99] |  |  |  | 0.1 to 1
Cc1cc(C)c2c(N)nc(NC3CC34CCNCC4)nc2n1 (centres unmarked) [Example 640] |  |  | 0 to 100 | > 31.6
Cc1cc(C)c2c(N)nc(N[C@@H]3CCN(Cc4ccc(C#N)cc4)C[C@H]3O)nc2n1 [Example 558] |  |  | 100 to 3000 | 1 to 10
Cc1cc(C)c2c(N)nc(NC3CNC3)nc2n1 [Example 214] |  |  | 0 to 100 | > 31.6
Cc1cc(C)c2c(N)cc(NC3CCN(C)CC3)nc2n1 [Example 291] |  |  | 100 to 3000 | 1 to 10
Cc1cc(C)c2c(N)nc(NC3CCN(Cc4cccc(C(=O)N(C)C)c4)CC3)nc2n1 [Example 462] |  |  | 0 to 100 | > 31.6
CC(C)Oc1ccc2c(N)nc(NC3CCN(C)CC3)nc2n1 [Example 38, 7-isopropoxy-N^2-(1-methylpiperidin-4-yl)pyrido[2,3-d]pyrimidine-2,4-diamine] |  |  | 0 to 100 | > 100
Cc1cc(C)c2c(N)nc(NCCCN3CCOCC3)nc2n1 [Example 6, 5,7-dimethyl-N^2-(3-morpholinopropyl)pyrido[2,3-d]pyrimidine-2,4-diamine] |  |  | 100 to 3000 | 10 to 100
CNc1nc(NC2CCN3CCCC23)nc2nc(C)cc(C)c12 (centres unmarked) [Example 439] |  |  | 0 to 100 | > 31.6
Cc1cc(C)c2c(N)nc(NC3CCN(C(C)c4ccccc4)CC3)nc2n1 (single isomer, unassigned) [Example 502] |  |  | 100 to 3000 | 0.1 to 1
Cc1cc(C)c2c(N)nc(NCCCN3CC(F)(F)C3)nc2n1 [Example 195] |  |  | 0 to 100 | > 31.6
CNc1nc(NC2CCNCC2)nc2nc(C)c3c(c12)CCC3 [Example 552] |  |  |  | 0.1 to 1
CC(CO)c1ccc2c(N)nc(NC3CCN(C)CC3)nc2n1 (centres unmarked) [Example 240, 2-(4-amino-2-((1-methylpiperidin-4-yl)amino)pyrido[2,3-d]pyrimidin-7-yl)propan-1-ol] |  |  | 0 to 100 | > 100
CN1CCC(Nc2nc(N)c3ccc(-c4ccc(N)cc4)nc3n2)CC1 [Example 68] |  |  | 100 to 3000 | 10 to 100
Cc1cc(C)c2c(N)nc(NC3CCN(Cc4cocn4)CC3)nc2n1 [Example 472] |  |  | 100 to 3000 | 1 to 10
CN1CCC(Nc2nc(N)c3cc(-c4cncs4)cnc3n2)CC1 [Example 647] |  |  | 100 to 3000 | 10 to 100
Cc1cc(C)c2c(N)nc(NCC3CCNCC3)nc2n1 [Example 141, 5,7-dimethyl-N^2-(piperidin-4-ylmethyl)pyrido[2,3-d]pyrimidine-2,4-diamine] |  |  | 100 to 3000 | 10 to 100
COCc1ccc(CN2CCC(Nc3nc(N)c4c(C)cc(C)nc4n3)CC2)cc1 [Example 488] |  |  | 100 to 3000 | 1 to 10
Cc1cc(C)c2c(N)nc(NC3CCN(Cc4ccns4)CC3)nc2n1 [Example 467] |  |  | 100 to 3000 | 1 to 10

Structure (SMILES) | Fold Over Control (maximum fold response relative to 200 μM G418) | pC100% (negative logarithm of the concentration giving the same response as 200 μM G418) | Emax [%] | EC (100% of 200 uM G418 response) [µM]
Cc1cc(C)c2c(N)nc(NCC3CCCN(C)C3)nc2n1 (centres unmarked) [Example 174] |  |  | 100 to 3000 | 10 to 100
Cc1cc(C)c2c(N)nc(NC3CCN(Cc4ccccn4)CC3)nc2n1 [Example 471] |  |  | 100 to 3000 | 1 to 10
CNc1nc(N[C@H]2CN(Cc3ccccc3)C[C@H]2F)nc2nc(C)cc(C)c12 [Example 621] |  |  | 100 to 3000 | 10 to 100
Cc1ccnc2nc(NC3CCN(C)CC3)nc(N)c12 [Example 2, 5-methyl-N^2-(1-methylpiperidin-4-yl)pyrido[2,3-d]pyrimidine-2,4-diamine] |  |  | 100 to 3000 | 10 to 100
Cc1cc(C)c2c(N)nc(NC3CCN(Cc4ccc(C(=O)N(C)C)cc4)CC3)nc2n1 [Example 495] |  |  | 0 to 100 | > 31.6
CC(O)c1ccc2c(N)nc(NC3CCN(C)CC3)nc2n1 (centres unmarked) [Example 288] |  |  | 100 to 3000 | 10 to 100
CN1CCC(Nc2nc(N)c3ccc(-c4ccc(O)cc4)nc3n2)CC1 [Example 102] |  |  | 100 to 3000 | 10 to 100
Cc1cc(C)c2c(N(C)C)nc(NC3CCN(C)CC3)nc2n1 [Example 262] |  |  | 100 to 3000 | 10 to 100
CC(=O)c1ccnc2nc(NC3CCN(C)CC3)nc(N)c12 [Example 309] |  |  | 0 to 100 | > 100
Cc1cc(C)c2c(N)nc(NC3CCN(Cc4c(C)cccc4C)CC3)nc2n1 [Example 468] |  |  | 100 to 3000 | 1 to 10
CC(C)c1cnc2nc(NC3CCN(C)CC3)nc(N)c2c1 [Example 276] |  |  | 100 to 3000 | 10 to 100
CN1CCC(Nc2nc(N)c3ccc(-c4cccc(O)c4)nc3n2)CC1 [Example 104] |  |  |  | 10 to 100
COCCNc1nc(NC2CCN(C)CC2)nc2nc(C)cc(C)c12 [Example 269] |  |  | 100 to 3000 | 1 to 10
CNc1nc(N[C@@H]2CCCN(C)C2)nc2nc(C)cc(C)c12 [Example 385] |  |  |  | 0.1 to 1
COCc1ccc2c(N)nc(NC3CCN(C)CC3)nc2n1 [Example 237, 7-(methoxymethyl)-N^2-(1-methylpiperidin-4-yl)pyrido[2,3-d]pyrimidine-2,4-diamine] |  |  | 100 to 3000 | 10 to 100
CN1CCC(Nc2nc(N)c3ccc(-c4ccccc4F)nc3n2)CC1 [Example 88] |  |  |  | 1 to 10
CNc1nc(N[C@@H]2CCN(C)C2)nc2nc(C)cc(OC)c12 [Example 631] |  |  | 100 to 3000 | 1 to 10
Cc1cc(C)c2c(N)nc(NC3CCN(Cc4c[nH]cn4)CC3)nc2n1 [Example 491] |  |  | 100 to 3000 | 10 to 100
CNc1nc(N[C@H]2CN(C)C[C@H]2C)nc2nc(C)cc(C)c12 [Example 379] |  |  | 100 to 3000 | 1 to 10
